Source: US7253165B2, “Benzisoxazolyl-, pyridoisoxazolyl-and benzthienyl-phenoxy derivatives useful as D4 antagonists” (Aventis Pharmaceuticals Inc., priority 1999, dated 2007)

What was measured:
[1] = molecular target: T1, human D4 receptor (D4.2 sub-type) (Homo sapiens, UniProt P21917, DEL265-296); assay: D4 receptor binding assay, displacement of 3H-spiperone; settings: 3H-spiperone 0.25 nM; for Ki: membranes of HEK cells transfected with human D4.2, * = HCl salt, read-out: D4 RBA Ki; for D4 RBA % Inhibition (@ 1 μM): 1 μM test compound
T1 sequence (P21917 with tags, fused parts or gaps DEL265-296): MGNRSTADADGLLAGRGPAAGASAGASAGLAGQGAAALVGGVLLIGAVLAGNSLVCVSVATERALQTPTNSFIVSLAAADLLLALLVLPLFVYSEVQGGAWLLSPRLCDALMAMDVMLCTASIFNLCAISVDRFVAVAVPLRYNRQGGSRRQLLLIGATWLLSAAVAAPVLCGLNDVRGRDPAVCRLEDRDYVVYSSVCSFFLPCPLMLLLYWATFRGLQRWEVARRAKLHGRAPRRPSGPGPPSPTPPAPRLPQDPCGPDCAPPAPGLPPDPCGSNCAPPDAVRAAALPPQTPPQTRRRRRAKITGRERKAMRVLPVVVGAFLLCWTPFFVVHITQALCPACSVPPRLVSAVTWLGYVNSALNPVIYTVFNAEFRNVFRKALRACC
Procedure: D4 receptor-binding affinities of the compounds were evaluated according to their ability to reduce binding of ^3H-spiperone as compared to the reference compound clozapine. The potency of the test compound to reduce ^3H-spiperone binding directly correlated to its binding affinity for the receptor.
[…] (human embryonic kidney) cells stably transfected with human D4 receptor (D4.2 sub-type) were grown in NUNC cell factories for 5 days (75% confluency) without a media change and removed with versene (approximately 19 mg of cells per cell factory tray). The cells were then centrifuged in a Sorval centrifuge for 10 min, 5000 rpm (GS3 rotor) and the pellets quickly frozen in liquid nitrogen and stored at −80° C. until used in binding assay. When used in the assay, cells were thawed on ice for 20 min and then 10 mL of incubation buffer (50 mM Tris, 1 mM EDTA, 4 mM MgCl2, 5 mM KCl, 1.5 mM CaCl2, 120 mM NaCl, pH 7.4) was added. The cells were then vortexed to resuspend pellet and homogenized with a Kinematica, CH-6010 Kriens-LU, homogenizer for 15 seconds at setting 7. Concentration of receptor protein was determined using the Pierce BCA assay.
The incubation was started by the addition of 100 μl (50 μg protein) membrane homogenate to a solution of 300 μl incubation buffer and 100 μl (0.25 nM final conc.) ^3H-spiperone (90 Ci/mmol, Amersham, diluted in borosilicate glass vial) in 96-well polypropylene plates (1 ML per well). The plates were vortexed and incubated at room temperature for 90 minutes. The binding reaction was stopped by filtering using a Packard Harvester. The samples were filtered under vacuum over glass fibre filter plates (Whatman GF/B) presoaked for 2 hours in 0.3% polyethylenimine (PEI) in 50 mM Tris buffer (pH 7.4). The filters were then washed 6 times with 7 mL ice cold 50 mM Tris buffer (pH 7.4). The filter plates were dried overnight and 35 μl of Microscint-O (Packard) was added. The plates were sealed and counted in the Packard Top Count (3 minutes per well).
The incubation was started by the addition of 100 μl (50 μg protein) membrane homogenate to a solution of 200 μl incubation buffer, 100 μl ^3H-spiperone (90 Ci/mmol, Amersham, diluted in borosilicate glass vial to 0.25 nM final conc.) and 100 μl (30 μM final conc.) of fresh dopamine (Research Biochemicals Inc., light protected and dissolved in incubation buffer) in 96-well polypropylene plates (1 mL per well). The plates were vortexed and incubated at room temperature for 90 minutes at which time the binding reaction was stopped by filtering. The filters were washed and counted using the same procedure as in the total binding assay described above to give the non-specific binding value (NSB).
The incubation was started by the addition, in 96-well polypropylene plates (1 mL per well), of 100 μl (50 μg protein) membrane homogenate to a solution of 200 μl incubation buffer, 100 μl (0.25 nM final-conc.) ^3H-spiperone (90 Ci/mmol, Amersham, diluted in borosilicate glass vial) and 100 μl of test compound that was prepared from 1 mM stock dissolved in DMSO and stored at −20° C. in polypropylene cryogenic storage vials until dilution in incubation buffer in 96-well polypropylene plates. The plates were vortexed and incubated at room temperature for 90 minutes at which time the binding reaction was stopped by filtering. The filters were washed and counted using the same procedure as in the total binding assay described above to give the displacement binding value (BD).
The test compounds were initially assayed at 1 and 0.1 μM and then at a range of concentrations chosen such that the middle dose would cause about 50% inhibition of ^3H-spiperone binding. Specific binding in the absence of test compound (B0) was the difference of total binding (BT) minus non-specific binding (NSB) and similarly specific binding (in the presence of test compound) (B) was the difference of displacement binding (BD) minus non-specific binding (NSB). […]

[2] = system: MK-801 induced stereotypy (locomotion and falling behavior) in CD-1 or C57 male mice; assay: MK-801 Stereotypy in Mice; settings: In Vivo Method PO, MK-801 0.2 mg/kg; for inhibition in vivo at 20 mg/kg: Mus musculus, read-out: Antag. of MK 801 Stereotypy % Inhib. @ 20 mg/kg
Procedure: Mk-801 dose-dependently induces characteristic stereotypy marked by locomotion and falling behavior. This MK-801 induced behavior can be antagonized by novel neuroleptic agents. This assay can also assess time course effects following drug administration.
CD-1 or C57 male mice are individually placed in activity boxes (8 mice/drug) and allowed to acclimate for 60 minutes. The mice are then administered test compounds either i.p., s.c., or p.o., at 15, 30, or 60 minutes prior to MK-801 (0.2 mg/kg) administration. Mice are observed for the presence of locomotion and falling behaviors 15 minutes following MK-801. For the duration of action studies the test compounds are administered i.p., s.c., or p.o., at 30, 60, 120, 180, and 240 minutes prior to MK-801 administration.

SMILES: CN(CCc1ccccc1)C[C@@H](O)COc1ccc(-c2noc3cc(F)ccc23)cc1 [Example 6]
- Ki [1]: 0.042 µM

SMILES: O[C@@H](COc1ccc(-c2noc3cc(F)ccc23)cc1)CN1CCN(c2ccccn2)CC1 [Example 8]
- Ki [1]: 0.009 µM
- inhibition in vivo at 20 mg/kg [2]: 37.5%

SMILES: CN(CCc1ccccc1)C[C@@H](O)COc1ccc(-c2noc3cc(F)ccc23)cc1 [Example 27, (R)-1-[4-(6-fluoro-benzo[d]isoxazol-3-yl)-phenoxy]-3-(methyl-phenethyl-amino)-propan-2-ol]
- D4 RBA % Inhibition (@ 1 μM) [1]: 66%

SMILES: O[C@@H](COc1ccc(-c2noc3cc(F)ccc23)cc1)CN1CCN(c2ccccn2)CC1 [Example 29, (R)-1-[4-(6-fluoro-benzo[d]isoxazol-3-yl)-phenoxy]-3-(4-pyridin-2-yl-piperazin-1-yl)-propan-2-ol]
- D4 RBA % Inhibition (@ 1 μM) [1]: 41%

SMILES: O[C@@H](COc1ccc(-c2noc3cc(F)ccc23)cc1)CN1CCC(c2noc3cc(F)ccc23)CC1 [Example 34, (R)-1-[4-(6-fluoro-benzo[d]isoxazol-3-yl)-phenoxy]-3-[4-(6-fluoro-benzo[d]isoxazol-3-yl)-piperidin-1-yl]-propan-2-ol]
- D4 RBA % Inhibition (@ 1 μM) [1]: 46%

SMILES: O[C@@H](COc1ccc(-c2noc3cc(F)ccc23)cc1)CN1CCC(O)(c2ccccc2)CC1 [Example 38, (R)-1-{3-[4-(6-fluoro-benzo[d]isoxazol-3-yl)-phenoxy]-2-hydroxy-propyl}-4-phenyl-piperidin-4-ol]
- D4 RBA % Inhibition (@ 1 μM) [1]: 54%

SMILES: O[C@@H](COc1cccc(-c2noc3cc(F)ccc23)c1)CN1CCN(c2ncccn2)CC1 [Example 69, (R)-1-[3-(6-fluoro-benzo[d]isoxazol-3-yl)-phenoxy]-3-(4-pyrimidin-2-yl-piperazin-1-yl)-propan-2-ol]
- Ki [1]: 0.014 µM

SMILES: O[C@H](CNC1CCc2ccccc21)COc1ccc(-c2noc3cc(F)ccc23)cc1 (stereo partly drawn) [Example 72, (R)-1-[4-(6-fluoro-benzo[d]isoxazol-3-yl)-phenoxy]-3-(indan-1-ylamino)-propan-2-ol]
- Ki [1]: 0.03 µM

SMILES: O[C@H](CNCc1cccs1)COc1ccc(-c2noc3cc(F)ccc23)cc1 [Example 73, (R)-1-[4-(6-fluoro-benzo[d]isoxazol-3-yl)-phenoxy]-3-[(thiophen-2-ylmethyl)-amino]-propan-2-ol]
- Ki [1]: 0.013 µM

SMILES: COc1cccc(CNC[C@@H](O)COc2ccc(-c3noc4cc(F)ccc34)cc2)c1 [Example 80, (R)-1-[4-(6-fluoro-benzo[d]isoxazol-3-yl)-phenoxy]-3-(3-methoxy-benzylamino)-propan-2-ol]
- D4 RBA % Inhibition (@ 1 μM) [1]: 76%

SMILES: O[C@H](CNC1Cc2ccccc2C1)COc1ccc(-c2noc3cc(F)ccc23)cc1 [Example 89, (R)-1-[4-(6-fluoro-benzo[d]isoxazol-3-yl)-phenoxy]-3-(indan-2-ylamino)-propan-2-ol]
- Ki [1]: 0.0013 µM
- Antag. of MK 801 Stereotypy % Inhib. @ 20 mg/kg [2]: 25%

SMILES: O[C@@H](COc1ccc(-c2noc3cc(F)ccc23)cc1)CN1CCC(Oc2cccc(Cl)c2)CC1 [Example 90, (R)-1-[4-(3-chloro-phenoxy)-piperidin-1-yl]-3-[4-(6-fluoro-benzo[d]isoxazol-3-yl)-phenoxy]-propan-2-ol]
- Ki [1]: 0.027 µM

SMILES: O[C@H](CNCc1ccc(F)cc1)COc1ccc(-c2csc3ccccc23)cc1 [Example 96, (R)-1-(4-benzo[b]thiophen-3-yl-phenoxy)-3-(4-fluoro-benzylamino)-propan-2-ol]
- Ki [1]: 0.026 µM

SMILES: O[C@@H](COc1cccc(-c2noc3ncccc23)c1)CN1CCC(Oc2cccc(Cl)c2)CC1 [Example 102, (R)-1-[4-(3-chloro-phenoxy)-piperidin-1-yl]-3-(3-isoxazolo[5,4-b]pyridin-3-yl-phenoxy)-propan-2-ol]
- D4 RBA % Inhibition (@ 1 μM) [1]: 59%

SMILES: O[C@@H](COc1cccc(-c2noc3ncccc23)c1)CN1CCN(c2ncccn2)CC1 [Example 106, (R)-1-(3-isoxazolo[5,4-b]pyridin-3-yl-phenoxy)-3-(4-pyrimidin-2-yl-piperazin-1-yl)-propan-2-ol]
- Ki [1]: 0.0084 µM

SMILES: CCCC1CCN(CCOc2ccc(-c3noc4cc(F)ccc34)cc2)CC1 [Example 146]
- Ki [1]: 0.034 µM

SMILES: Fc1ccc2c(-c3ccc(OCCN4CCC5(CC4)OCCO5)cc3)noc2c1 [Example 152]
- Ki [1]: 0.0071 µM

SMILES: CC1CCN(CCCOc2ccc(-c3noc4cc(F)ccc34)cc2)CC1 [Example 153]
- Ki [1]: 0.0038 µM
- inhibition in vivo at 20 mg/kg [2]: 75%

SMILES: CCCC1CCN(CCCOc2ccc(-c3noc4cc(F)ccc34)cc2)CC1 [Example 154]
- Ki [1]: 0.0112 µM
- inhibition in vivo at 20 mg/kg [2]: 25%

SMILES: Fc1ccc2c(-c3ccc(OCCCN4CCCCCC4)cc3)noc2c1 [Example 156]
- Ki [1]: 0.00388 µM
- inhibition in vivo at 20 mg/kg [2]: 50%

SMILES: Fc1ccc2c(-c3ccc(OCCCN4CCCCCCC4)cc3)noc2c1 [Example 157]
- Ki [1]: 0.00835 µM
- inhibition in vivo at 20 mg/kg [2]: 50%

SMILES: Fc1ccc2c(-c3ccc(OCCCNCC4CCCCC4)cc3)noc2c1 [Example 158]
- Ki [1]: 0.00842 µM
- inhibition in vivo at 20 mg/kg [2]: 37.5%
